Experimental data from PMC10538940, “Evaluating Scalable Supervised Learning for Synthesize-on-Demand Chemical Libraries” (Journal of Chemical Information and Modeling, 2023).

target: PriA-SSB (Klebsiella pneumoniae subsp. pneumoniae, UniProt A6TGC5); assay: PriA-SSB AlphaScreen (AS) dose-response screen of Enamine REAL compounds; assay type: biochemical, Klebsiella pneumonia; conditions: not given
Protocol: We screened the MLPCN compound library using an AlphaScreen (AS) assay at a single concentration (33.3 μm) following the same protocol previously used to screen the LC1234 libraries.[27],[28] Briefly, library compounds and controls were dispensed from 10 mM DMSO stocks into white 1536-well plates with an Echo 550 acoustic liquid handler. Next, 3 μL of a master mix was added to each well using a Mantis liquid handler with a high-volume silicone chip to yield a final reaction mixture containing 10 mM HEPES-HCl (pH 7.5), 150 mM NaCl, 1 mM MgCl2, 10 mM dithiothreitol, 1 mg/mL bovine serum albumin, 0.01% Triton X-100, 0.1 μM Klebsiella pneumonia PriA (with N-terminal 6×His tag), 0.1 μM Biotinylated-SSBct (N-Biotin-Trp-Met-Asp-Phe-Asp-Asp-Asp-Ile-Pro-Phe-C), 5 μg/mL of both AS acceptor and donor beads, and 33.3 μm of compound. For positive and negative control wells, the compound was replaced with 25 μM SSBct peptide (N-Trp-Met-Asp-Phe-Asp-Asp-Asp-Ile-Pro-Phe-C) or 25 μM ΔFSSBct (N-Trp-Met-Asp-Phe-Asp-Asp-Asp-Ile-Pro-C), respectively. Plates were centrifuged briefly and rocked for an hour at room temperature. Then, the AS signal of each well was measured with a PheraStar plate reader using a 0.1 s settling time, a 0.3 s excitation, a 0.04 s delay, and a 0.6 s integration time. AS signals for each well were adjusted as previously described to reduce the impact of plate and edge effects.[28] We calculated a Z′ factor for each plate[61] and repeated plates with Z′ < 0.5. In addition, we calculated the % inhibition relative to the controls for each compound. We retested compounds with ≥35% inhibition that also passed PAINS filters[62],[63] with the same assay to confirm activity.
All 68 compounds were initially screened in four replicates at eight concentrations ranging from 515.6 nm to 66 μm. We defined compounds whose median % inhibition at 33 μm was at least 50%, the same threshold used for the AMS screen, as initial hits. We repeated the dose–response curve screens for two additional rounds of ten compounds each, expanding the range of concentrations tested to improve the quality of the curve fits (Appendix A.9). We defined confirmed hits as those with a dose–response curve in curve class[82] 1.2 or in curve class 2.2 with an IC50 95% upper confidence limit within the tested range of concentrations. We used the Collaborative Drug Discovery Vault software[83] to fit dose–response curves, calculate IC50 values and the 95% upper and lower confidence limits, and define curve classes. […]
A.9 Enamine REAL Dose-Response Curves
We generated three sets of dose-response curves: eight-point curves with four replicates for all 68 Enamine compounds, 16-point curves with eight replicates for 10 compounds, and another set of 16-point curves with six replicates for 10 compounds. The eight-point dose-response curves started with an initial concentration of 66 µm and progressively divided the concentration in half until reaching 515.6 nm. Both 16-point dose-response curves started with an initial concentration of 100 µm, then 66.7 µm, and then progressively divided the concentration in half until reaching 4.2 nm. All dose-response screens followed the same protocol used for the MLPCN library. The dose-response curve images are available in our […]
We generated the 16-point dose-response curves because we were unable to reliably estab-lish IC50 values for some compounds in the eight-point screen. The minimum concentrations tested were not low enough. When reporting IC50 values and bounds in Table 4 we used the screening data from the highest-quality dose-response curve. The second set of 16-point curves were the highest quality because they had 16 concentrations and were unaﬀected by any spatial plate eﬀects. The ﬁrst set of 16-point curves were the next highest quality because they also had 16 concentrations and the most replicates. However, some of the readings at the lowest concentration in these curves were skewed due to assay spatial eﬀects at the plate […]
edge. […]

PriA-SSB, sequence (A6TGC5 whole entry): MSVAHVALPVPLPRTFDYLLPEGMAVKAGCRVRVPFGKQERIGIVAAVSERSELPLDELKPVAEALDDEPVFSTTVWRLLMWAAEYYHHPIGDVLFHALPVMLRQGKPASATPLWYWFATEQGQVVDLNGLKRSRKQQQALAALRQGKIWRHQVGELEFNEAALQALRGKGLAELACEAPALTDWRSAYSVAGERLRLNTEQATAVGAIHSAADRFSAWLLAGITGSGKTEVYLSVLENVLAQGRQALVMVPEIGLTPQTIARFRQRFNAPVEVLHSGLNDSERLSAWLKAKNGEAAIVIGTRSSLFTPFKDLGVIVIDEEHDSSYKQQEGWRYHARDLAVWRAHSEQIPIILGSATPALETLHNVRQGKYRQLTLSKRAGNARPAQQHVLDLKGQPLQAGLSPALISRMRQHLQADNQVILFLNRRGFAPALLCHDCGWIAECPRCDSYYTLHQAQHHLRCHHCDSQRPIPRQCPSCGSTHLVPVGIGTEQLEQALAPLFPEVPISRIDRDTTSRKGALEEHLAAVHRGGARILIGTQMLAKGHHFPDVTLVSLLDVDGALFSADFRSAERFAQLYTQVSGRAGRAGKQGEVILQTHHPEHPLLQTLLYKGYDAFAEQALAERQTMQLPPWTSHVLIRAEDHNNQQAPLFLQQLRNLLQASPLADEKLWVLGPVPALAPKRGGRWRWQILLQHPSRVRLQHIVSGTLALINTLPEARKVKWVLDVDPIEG

Question: `O=C(CN1C(=O)COc2ccc([N+](=O)[O-])cc21)Nc1nc(-c2ccccn2)cs1` [Z109132782] was tested. Which IC50 did it give?
Answer: 12.4 µM

Question: Which IC50 does the source give for `CC(C)N(C)S(=O)(=O)c1ccc(F)c(C(=O)Nc2nc(-c3ccccn3)cs2)c1` [Z339655406] here?
Answer: 6.8 µM

Question: How did the IC50 turn out when `Cc1n[nH]c(SCC(=O)Nc2nnc(-c3ccccn3)[nH]2)n1` [Z1313381195] was run?
Answer: 15.5 µM

Question: For `O=C1CC2(CCOC2)C(C(=O)Nc2nc(-c3ccccn3)cs2)CN1` (stereo not drawn) [Z3297024656], which IC50 is on record?
Answer: 12.6 µM

Question: `CC1CC(Nc2nc(-c3ccccn3)nc3c2CCC3)CC(C)N1` (stereo not drawn) [Z3395547714] was tested. Which IC50 did it give?
Answer: 12.1 µM

same assay, conditions: eight concentrations 515.6 nm to 66 μm; includes some initial hits not confirmed

Question: Which “Enamine Inactive (not confirmed as hit in full dose-response curves)” value does the source give for `O=C(Cc1ccc(S(=O)(=O)N2CCOCC2)s1)Nc1nc(-c2ccccn2)cs1` [Z29467739] here?
Answer: Inactive

Question: For `Cc1cccc2nc(CSc3cccc4cccnc34)cn12` [Z56788250], which “Enamine Inactive (not confirmed as hit in full dose-response curves)” value is on record?
Answer: Inactive

Question: Which “Enamine Inactive (not confirmed as hit in full dose-response curves)” value does the source give for `CCOC(=O)c1c(C)[nH]c(C(=O)CSc2cccc3cccnc23)c1C` [Z71173293] here?
Answer: Inactive

Question: Which “Enamine Inactive (not confirmed as hit in full dose-response curves)” value does the source give for `Cc1ccc(-n2nc(C)cc2NC(=O)CSc2cccc3cccnc23)cc1` [Z71174619] here?
Answer: Inactive

Question: For `O=c1[nH]ncc(N/N=C/c2ccccn2)c1Cl` [Z114886052], which “Enamine Inactive (not confirmed as hit in full dose-response curves)” value is on record?
Answer: Inactive

Question: Which “Enamine Inactive (not confirmed as hit in full dose-response curves)” value does the source give for `O=C(CSc1cccc2cccnc12)Nc1cccc(N2CCCC2=O)c1` [Z202503096] here?
Answer: Inactive

Question: With `CCOC(=O)c1[nH]c(C)c(C(=O)CSc2cccc3cccnc23)c1C` [Z225905608] as the compound, how does the “Enamine Inactive (not confirmed as hit in full dose-response curves)” value read?
Answer: Inactive

Question: Which “Enamine Inactive (not confirmed as hit in full dose-response curves)” value does the source give for `c1cnc2c(Cn3ccnc3)cccc2c1` [Z241926076] here?
Answer: Inactive

Question: Which “Enamine Inactive (not confirmed as hit in full dose-response curves)” value does the source give for `O=C(O)CSc1ccc([N+](=O)[O-])c2cccnc12` [Z285779920] here?
Answer: Inactive

Question: How did the “Enamine Inactive (not confirmed as hit in full dose-response curves)” value turn out when `O=[N+]([O-])c1cc(Cl)cc(C=Nc2ccc(Cl)c3ncccc23)c1O` [Z314947084] was run?
Answer: Inactive

Question: How did the “Enamine Inactive (not confirmed as hit in full dose-response curves)” value turn out when `O=[N+]([O-])c1ncn(Cc2cccc3cccnc23)n1` [Z666250890] was run?
Answer: Inactive

Question: With `Fc1cccc2[nH]c(-c3ccccn3)nc12` [Z666485712] as the compound, how does the “Enamine Inactive (not confirmed as hit in full dose-response curves)” value read?
Answer: Inactive

Question: How did the “Enamine Inactive (not confirmed as hit in full dose-response curves)” value turn out when `Clc1cccnc1NN=Cc1ccccn1` [Z734817070] was run?
Answer: Inactive

Question: How did the “Enamine Inactive (not confirmed as hit in full dose-response curves)” value turn out when `c1cnc2c(SCCn3cncn3)cccc2c1` [Z1116571364] was run?
Answer: Inactive

Question: With `Nc1ncc(-c2ccccn2)cn1` [Z1255380138] as the compound, how does the “Enamine Inactive (not confirmed as hit in full dose-response curves)” value read?
Answer: Inactive

Question: Which “Enamine Inactive (not confirmed as hit in full dose-response curves)” value does the source give for `O=c1[nH]c(NN=Cc2ccccn2)nc2ccccc12` [Z1407899729] here?
Answer: Inactive

Question: `O=C(O)c1cc(C(=O)N2CCS(=O)(=O)CC2)ccn1` [Z1443864314] was tested. Which “Enamine Inactive (not confirmed as hit in full dose-response curves)” value did it give?
Answer: Inactive

Question: With `c1cncc(CSCc2cccc3cccnc23)c1` [Z2146195633] as the compound, how does the “Enamine Inactive (not confirmed as hit in full dose-response curves)” value read?
Answer: Inactive

Question: Which “Enamine Inactive (not confirmed as hit in full dose-response curves)” value does the source give for `CCc1nc(C)c(CSc2cccc3cccnc23)o1` [Z2273856428] here?
Answer: Inactive

Question: Which “Enamine Inactive (not confirmed as hit in full dose-response curves)” value does the source give for `Cc1nn(C(C)C)cc1-c1ccc2cccnc2c1C` [Z2618185084] here?
Answer: Inactive

Question: How did the “Enamine Inactive (not confirmed as hit in full dose-response curves)” value turn out when `CC(C)c1ncc(-c2cccc3cccnc23)n1C` [Z2739840324] was run?
Answer: Inactive

Question: For `CC(C)(C)c1ncc(-c2cccc3cccnc23)o1` [Z2998111045], which “Enamine Inactive (not confirmed as hit in full dose-response curves)” value is on record?
Answer: Inactive

Question: With `O=C(Nc1nc(-c2ccccn2)cs1)C1(C2CCCCO2)CCCO1` (stereo not drawn) [Z3075781550] as the compound, how does the “Enamine Inactive (not confirmed as hit in full dose-response curves)” value read?
Answer: Inactive

Question: Which “Enamine Inactive (not confirmed as hit in full dose-response curves)” value does the source give for `Cc1cc(-c2ccccn2)n[nH]1` [Z3225506284] here?
Answer: Inactive

Question: `C1=C(c2cccc3cccnc23)CCNC1` [Z3238971184] was tested. Which “Enamine Inactive (not confirmed as hit in full dose-response curves)” value did it give?
Answer: Inactive

Question: How did the “Enamine Inactive (not confirmed as hit in full dose-response curves)” value turn out when `c1ccc(-c2n[nH]c3ccccc23)nc1` [Z3242476057] was run?
Answer: Inactive

Question: For `c1ccc(-c2csc(NC3COC4(CCC4)C3)n2)nc1` (stereo not drawn) [Z3295148399], which “Enamine Inactive (not confirmed as hit in full dose-response curves)” value is on record?
Answer: Inactive

Question: For `c1ccc(-c2cnc3n2CCC3)nc1` [Z3347084877], which “Enamine Inactive (not confirmed as hit in full dose-response curves)” value is on record?
Answer: Inactive

Question: For `c1cc2c(c(-c3cccc4cccnc34)c1)CNC2` [Z3484513235], which “Enamine Inactive (not confirmed as hit in full dose-response curves)” value is on record?
Answer: Inactive

Question: For `OCCCN(CCO)c1ccc2ccc3cccnc3c2n1` [Z3557694708], which “Enamine Inactive (not confirmed as hit in full dose-response curves)” value is on record?
Answer: Inactive

Question: `CN(C)CCN(C)c1ccc2ccc3cccnc3c2n1` [Z3557781825] was tested. Which “Enamine Inactive (not confirmed as hit in full dose-response curves)” value did it give?
Answer: Inactive

Question: How did the “Enamine Inactive (not confirmed as hit in full dose-response curves)” value turn out when `COC(C)COc1ccc2ccc3cccnc3c2n1` (stereo not drawn) [Z3634004206] was run?
Answer: Inactive

Question: With `CC1(C)CC(CSc2cccc3cccnc23)=NO1` [Z3638513333] as the compound, how does the “Enamine Inactive (not confirmed as hit in full dose-response curves)” value read?
Answer: Inactive

Question: With `Clc1ccc(CN2CCOCCOCC2)c2ncccc12` [Z3652859018] as the compound, how does the “Enamine Inactive (not confirmed as hit in full dose-response curves)” value read?
Answer: Inactive
